Experiments:
[1] = target: T1, TYK2 (Homo sapiens, UniProt P29597); test: ADP-Glo kinase inhibition assay, TYK2
T1 sequence (P29597 897-1187 limits assumed): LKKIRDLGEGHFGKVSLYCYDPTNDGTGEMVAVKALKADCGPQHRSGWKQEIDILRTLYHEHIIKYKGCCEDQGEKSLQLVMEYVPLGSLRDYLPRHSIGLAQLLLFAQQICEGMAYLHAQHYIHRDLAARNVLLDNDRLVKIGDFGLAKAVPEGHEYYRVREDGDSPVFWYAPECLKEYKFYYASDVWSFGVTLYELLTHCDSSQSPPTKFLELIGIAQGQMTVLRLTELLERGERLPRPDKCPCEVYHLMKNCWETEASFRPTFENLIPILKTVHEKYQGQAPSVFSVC
Excerpt: (§1) A drug screening system based on kinases JAK1, JAK2, JAK3, and TYK2 was used to detect the inhibitory ability of small molecule compounds on kinase activity. A kinase undergoes an enzymatic reaction with its substrates IRS1, IGF1Rtide, and Poly (4:1 Glu, Tyr), consuming ATP to produce ADP, wherein the ADP-Glo reagent and luminescence method were used to detect the amount of the product to reflect the activity of the kinase.
(§2) For TYK2 inhibition activity testing, the starting concentration was 10 μM with 1:4 serial dilution. Test compounds were used at a starting concentration of 0.5 μM with 1:4 serial dilution.
(§3) Transfer 4 μL of ADP-Glo reagent to the 384-well plate, which was centrifuged at 1000 rpm for 1 minute, and incubated at 25° C. for 40 minutes.
(§4) Transfer 8 μL of the test solution to the 384-well plate, which was centrifuged at 1000 rpm for 1 minute, and incubated at 25° C. for 40 minutes.
(§5) Read luminescence signals using a multimode microplate reader.
(§6) [formula] • Negative Control: DMSO • Positive Control: Tofacitinib
(§7) The following nonlinear regression equation was used to determine the compound's IC50(half-maximal inhibitory concentration). Data analysis was performed using GraphPad Prism 7.0 software.
(§8) [formula] • X: Logarithm of compound concentration; and Y: Inhibition rate (% Inhibition)

[2] = target: JAK2 (Homo sapiens, UniProt O60674); test: ADP-Glo kinase inhibition assay, JAK2
Excerpt: as §1, §2, §3, §4, §5, §6, §7, §8

[3] = target: JAK1 (Homo sapiens, UniProt P23458); test: ADP-Glo kinase inhibition assay, JAK1
Excerpt: as §1, §2, §3, §4, §5, §6, §7, §8

[4] = target: JAK3 (Homo sapiens, UniProt P52333); test: ADP-Glo kinase inhibition assay, JAK3
Excerpt: as §1, §2, §3, §4, §5, §6, §7, §8

[5] = test system: itching caused by allergic dermatitis; conditions: dogs, cited from earlier work

Sequence of JAK2 (O60674 826-1132 limits assumed): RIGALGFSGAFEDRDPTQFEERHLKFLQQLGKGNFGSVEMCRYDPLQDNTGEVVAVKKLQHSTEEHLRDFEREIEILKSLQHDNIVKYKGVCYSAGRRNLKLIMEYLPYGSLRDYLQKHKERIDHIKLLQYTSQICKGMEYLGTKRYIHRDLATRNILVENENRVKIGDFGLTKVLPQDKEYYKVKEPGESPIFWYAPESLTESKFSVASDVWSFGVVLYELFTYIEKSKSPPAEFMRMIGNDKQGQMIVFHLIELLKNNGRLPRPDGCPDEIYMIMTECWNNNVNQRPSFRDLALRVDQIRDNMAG
Sequence of JAK3 (P52333 795-1124 limits assumed): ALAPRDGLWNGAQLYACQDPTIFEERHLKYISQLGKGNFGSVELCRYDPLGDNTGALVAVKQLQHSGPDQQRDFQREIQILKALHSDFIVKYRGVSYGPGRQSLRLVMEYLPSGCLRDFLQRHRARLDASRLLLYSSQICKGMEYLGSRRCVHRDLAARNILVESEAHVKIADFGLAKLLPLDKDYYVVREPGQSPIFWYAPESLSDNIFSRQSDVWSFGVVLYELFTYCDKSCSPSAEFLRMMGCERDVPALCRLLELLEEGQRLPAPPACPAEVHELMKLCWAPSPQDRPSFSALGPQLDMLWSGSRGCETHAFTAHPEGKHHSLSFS
Sequence of JAK1 (P23458 850-1154 limits assumed): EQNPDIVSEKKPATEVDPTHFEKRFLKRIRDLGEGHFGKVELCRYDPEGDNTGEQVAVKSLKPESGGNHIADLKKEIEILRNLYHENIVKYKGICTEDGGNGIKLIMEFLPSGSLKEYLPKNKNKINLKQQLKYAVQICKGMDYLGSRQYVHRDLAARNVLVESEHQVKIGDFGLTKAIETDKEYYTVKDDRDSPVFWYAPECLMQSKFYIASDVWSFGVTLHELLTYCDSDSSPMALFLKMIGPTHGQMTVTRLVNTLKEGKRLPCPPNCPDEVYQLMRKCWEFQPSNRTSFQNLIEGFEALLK

Row | IC50 [1] [nM] | IC50 [2] [nM] | IC50 [3] [nM] | IC50 [4] [nM] | Compound | experimental animals that alleviated the itching response by more than 50% ([5]; on the 7th day) | time to relieve itching ([5]; oral 0.4-0.6 mg/kg twice a day) [h]
1 | 6.4 | 0.05 | 0.43 | 1 | [2H]C([2H])([2H])c1cc(O)c(F)cc1-c1ccc2c(-c3nc4c([nH]3)CN(CC(C)O)C4)n[nH]c2c1 (stereo in doubt) [Compound 28] |  | 
2 | 0.8 | 0.013 | 0.096 | 0.2 | [2H]C([2H])([2H])c1cc(O)c(F)cc1-c1ccc2c(-c3nc4c([nH]3)CN(C(=O)NC[C@@H](C)O)C4)n[nH]c2c1 [Compound 1, (R)-2-(6-(5-Fluoro-4-hydroxy-2-(methyl-d3)phenyl)-1H-indazol-3-yl)-N-(2-hydroxypropyl)-4,6-dihydropyrrolo[3,4-d]imidazole-5(1H)-carboxamide] |  | 
3 | 1.2 | 0.017 | 0.19 | 0.28 | [2H]C([2H])([2H])c1cc(O)c(F)cc1-c1ccc2c(-c3nc4c([nH]3)CN(C(=O)C3CC3)C4)n[nH]c2c1 [Compound 2, Cyclopropyl (2-(6-(5-fluoro-4-hydroxy-2-(methyl-d3)phenyl)-1H-indazol-3-yl)-4,6-dihydropyrrolo[3,4-d]imidazol-5(1H)-yl) ketone] |  | 
4 | 0.022 | 0.015 | 0.0072 | 0.044 | [2H]C([2H])([2H])C([2H])([2H])c1cc(O)c(F)cc1-c1ccc2c(-c3nc4c([nH]3)CN(C(=O)N3CC[C@H](O)C3)C4)n[nH]c2c1 [Compound 3, (S)-(2-(6-(2-(Ethyl-d5)-5-fluoro-4-hydroxyphenyl)-1H-indazol-3-yl)-4,6-dihydropyrrolo[3,4-d]imidazol-5(1H)-yl) (3-hydroxypyrrolidin-1-yl) ketone methanesulfonate] |  | 
5 | 1 | 0.015 | 0.1 | 0.26 | [2H]C([2H])([2H])c1cc(O)c(F)cc1-c1ccc2c(-c3nc4c([nH]3)CN(C(=O)NC[C@H](C)O)C4)n[nH]c2c1 [Compound 4, (S)-2-(6-(5-Fluoro-4-hydroxy-2-(methyl-d3)phenyl)-1H-indazol-3-yl)-N-(2-hydroxypropyl)-4,6-dihydropyrrolo[3,4-d]imidazole-5(1H)-carboxamide] |  | 
6 | 1.6 | 0.01 | 0.2 | 0.3 | [2H]C([2H])([2H])c1cc(O)c(F)cc1-c1ccc2c(-c3nc4c([nH]3)CN(C(=O)NCC(C)O)C4)n[nH]c2c1 (stereo not shown) [Compound 5, 2-(6-(5-Fluoro-4-hydroxy-2-(methyl-d3)phenyl)-1H-indazol-3-yl)-N-(2-hydroxypropyl)-4,6-dihydro-pyrrolo[3,4-d]imidazole-5(1H)-carboxamide] |  | 
7 | 0.32 | 0.013 | 0.086 | 0.19 | [2H]C([2H])([2H])c1cc(O)c(F)cc1-c1ccc2c(-c3nc4c([nH]3)CN(C(=O)N3CC[C@H](O)C3)C4)n[nH]c2c1 [Compound 6, (S)-(2-(6-(5-Fluoro-4-hydroxy-2-(methyl-d3)phenyl)-1H-indazol-3-yl)-4,6-dihydropyrrolo[3,4-d]imidazole-5(1H)-yl)(3-hydroxypyrrolidin-1-yl)ketone] |  | 
8 | 0.53 | 0.014 | 0.07 | 0.25 | [2H]C([2H])([2H])c1cc(O)c(F)cc1-c1ccc2c(-c3nc4c([nH]3)CN(C(=O)NCCCO)C4)n[nH]c2c1 [Compound 7, 2-(6-(5-Fluoro-4-hydroxy-2-(methyl-d3)phenyl)-1H-indazol-3-yl)-N-(3-hydroxypropyl)-4,6-dihydropyrrolo[3,4-d]imidazole-5(1H)-carboxamide] |  | 
9 | 0.19 | 0.004 | 0.045 | 0.16 | [2H]C([2H])([2H])c1cc(O)c(F)cc1-c1ccc2c(-c3nc4c([nH]3)CN(C(=O)N3CC[C@@H](O)C3)C4)n[nH]c2c1 [Compound 8, (R)-(2-(6-(5-Fluoro-4-hydroxy-2-(methyl-d3)phenyl)-1H-indazol-3-yl)-4,6-dihydropyrrolo[3,4-d]imidazole-5(1H)-yl)(3-hydroxypyrrolidin-1-yl)ketone] |  | 
10 | 0.43 | 0.008 | 0.071 | 0.32 | [2H]C([2H])([2H])c1cc(O)c(F)cc1-c1ccc2c(-c3nc4c([nH]3)CN(C(=O)N(C)C)C4)n[nH]c2c1 [Compound 9, 2-(6-(5-Fluoro-4-hydroxy-2-(methyl-d3)phenyl)-1H-indazol-3-yl)-N,N-dimethyl-4,6-dihydropyrrolo[3,4-d]imidazole-5(1H)-carboxamide] |  | 
11 | 0.37 | 0.0097 | 0.092 | 0.3 | [2H]C([2H])([2H])c1cc(O)c(F)cc1-c1ccc2c(-c3nc4c([nH]3)CN(C(=O)N3CCOCC3)C4)n[nH]c2c1 [Compound 10] |  | 
12 |  |  | 1.8 |  | [2H]C([2H])([2H])c1cc(O)c(F)cc1-c1ccc2c(-c3nc4c([nH]3)CN(C)C4)n[nH]c2c1 [Compound 12, 2-Fluoro-5-(methyl-d3)-4-(3-(5-methyl-1,4,5,6-tetrahydropyrrolo[3,4-d]imidazol-2-yl)-1H-indazol-6-yl)phenol] |  | 
13 | 0.43 | 0.012 | 0.077 | 0.22 | [2H]C([2H])([2H])c1cc(O)c(F)cc1-c1ccc2c(-c3nc4c([nH]3)CN(C(=O)NC)C4)n[nH]c2c1 [Compound 13] |  | 
14 |  | 0.61 |  |  | [2H]C([2H])([2H])c1cc(O)c(F)cc1-c1ccc2c(-c3nc4c([nH]3)CN(C(=O)OC)C4)n[nH]c2c1 [Compound 18] |  | 
15 | 0.3 | 0.005 | 0.032 | 0.18 | [2H]C([2H])([2H])c1cc(O)c(F)cc1-c1ccc2c(-c3nc4c([nH]3)CN(C(=O)N3CCC(O)CC3)C4)n[nH]c2c1 [Compound 19] |  | 
16 | 0.3 | 0.032 | 0.025 | 0.2 | [2H]C([2H])([2H])C([2H])([2H])c1cc(O)c(F)cc1-c1ccc2c(-c3nc4c([nH]3)CN(C(=O)N(C)C)C4)n[nH]c2c1 [Compound 32] |  | 
17 | 0.085 | 0.0088 | 0.0075 | 0.095 | [2H]C([2H])([2H])C([2H])([2H])c1cc(O)c(F)cc1-c1ccc2c(-c3nc4c([nH]3)CN(C(=O)N3CC[C@@H](O)C3)C4)n[nH]c2c1 [Compound 35] |  | 
18 |  |  |  |  | CNS(=O)(=O)C[C@H]1CC[C@H](N(C)c2ncnc3[nH]ccc23)CC1 [Olatinib] | more than 70% | ≤ 24
